Laboratory results reported in patent US20230416679A1, “METHODS AND COMPOSITIONS FOR IN-VITRO AUGMENTATION OF MILK PRODUCTION FROM MAMMARY EPITHELIAL CELLS” (Wilk Technologies International Ltd., priority 2021, published 2023).
Entries after “also recorded” stand apart in the source; their conditions may differ.

Tests used:
Format in all cases: cell-based
[1] = tested on: primary culture of bovine mammary epithelial cells; test: Intracellular triglyceride content in cell lysates (lipid extraction, HPLC-ELSD); details: for intracellular triglyceride content: 24 h of treatment (FIG. 7)
From the text: For all the experiments, primary culture of bovine mammary epithelial cells were used. The cells were isolated from 3 lactating Holstein cows according to an established protocol (Cohen et al., 2015 supra). Study protocols were in compliance with the regulations of the Israeli Ministry of Health, under the supervision of the Department for Control of Animal Products, State of Israel Ministry of Agriculture Rural Development Veterinary Services and Animal Health. Certificate Nu: #80. After isolation, 60,000 cells were plated in a 35-mm plastic dish on glass cover slips for all florescence staining experiments. For production analysis, 150,000 cells were plated in a 60-mm plastic dish for lipids, protein, and lactose extraction. Oxygen consumption assay was performed by using Seahorse system (Agilent, USA); cells were plated in 24-well plate (20,000 cells/well) and incubated with DMEM/F12, with 0.15% (v/v) bovine serum albumin and insulin (1 μg/ml), hydrocortisone (0.5 μg/ml) and prolactin (1 μg/ml) for 48 h to induce lactogenic response. Then cells were treated with three different P. lentiscus extracts: ethyl acetate, hexane and chloroform, according to the protocol that was used before (Azaizeh et al., 2013). The extracts were diluted with DMEM/F12 medium supplemented with Dimethyl Sulfoxide (DMSO) in a final concentration of 0.1% for better dissolution of the extractions. […] The treatment was given in the presence of insulin (1 μg/ml), hydrocortisone (0.5 μg/ml) and prolactin (1 μg/ml). […] Otherwise, cells were fixed for florescence staining or plates taken to seahorse for oxygen consumption rate measurement.
After treatment, total lipids were extracted from harvested cells and from collected medium. The medium or the cells were diluted by 20 times Folch reagent (Chloroform-Methanol 2:1). After overnight incubation with cold extraction at 4° C., the upper phase was removed, and the lower phase was filtered through glass wool. Samples were then evaporated under a nitrogen stream at 65° C., diluted in 100 μl chloroform:methanol (97:3, v/v) and stored at −20° C. until injection for HPLC analysis. […] Quantification was performed against external standard curves and expressed as μg/per 10^6 live cells or as weight % out of the sum of phospholipids (μg) in the sample. Live cell number was determined with a hemocytometer after 5 min of trypan blue staining. […]
Cells were incubated with 360 uM oleic acid (O) with or without 1.2 mM beta hydroxybutyrate (BHBA, H). The concentration of triglyceride was measured in cell lysates.

[2] = tested on: primary culture of bovine mammary epithelial cells; test: Intracellular lipid droplets fluorescence staining (Nile red / DAPI)
From the text: For all the experiments, primary culture of bovine mammary epithelial cells were used. The cells were isolated from 3 lactating Holstein cows according to an established protocol (Cohen et al., 2015 supra). Study protocols were in compliance with the regulations of the Israeli Ministry of Health, under the supervision of the Department for Control of Animal Products, State of Israel Ministry of Agriculture Rural Development Veterinary Services and Animal Health. Certificate Nu: #80. After isolation, 60,000 cells were plated in a 35-mm plastic dish on glass cover slips for all florescence staining experiments. […] After 24 h of incubation, medium was collected for triglyceride and phospholipid quantification, and cells were harvested for cell counting, lipid, lactose or protein extraction. […] Cover slips were then rinsed four times with PBS and mounted with fluorescence mounting medium (Dako, North America Inc., Carpinteria, CA). Slides were visualized with an Olympus BX40 fluorescence microscope equipped with an Olympus DP73 digital camera using CellSens Entry software (version 1.7, Olympus). Lipid droplet diameter was measured using ImageJ software (version 1.48, NIH, Bethesda, MD). […] The effect of oleic acid on accumulation of fat in primary culture of mammary epithelial cells was determined using Nile red staining (red). […]

[3] = tested on: primary culture of bovine mammary epithelial cells; test: Milk protein (casein, whey) secretion to the medium (HPLC-UV)
From the text: For all the experiments, primary culture of bovine mammary epithelial cells were used. The cells were isolated from 3 lactating Holstein cows according to an established protocol (Cohen et al., 2015 supra). Study protocols were in compliance with the regulations of the Israeli Ministry of Health, under the supervision of the Department for Control of Animal Products, State of Israel Ministry of Agriculture Rural Development Veterinary Services and Animal Health. Certificate Nu: #80. After isolation, 60,000 cells were plated in a 35-mm plastic dish on glass cover slips for all florescence staining experiments. For production analysis, 150,000 cells were plated in a 60-mm plastic dish for lipids, protein, and lactose extraction. Oxygen consumption assay was performed by using Seahorse system (Agilent, USA); cells were plated in 24-well plate (20,000 cells/well) and incubated with DMEM/F12, with 0.15% (v/v) bovine serum albumin and insulin (1 μg/ml), hydrocortisone (0.5 μg/ml) and prolactin (1 μg/ml) for 48 h to induce lactogenic response. Then cells were treated with three different P. lentiscus extracts: ethyl acetate, hexane and chloroform, according to the protocol that was used before (Azaizeh et al., 2013). The extracts were diluted with DMEM/F12 medium supplemented with Dimethyl Sulfoxide (DMSO) in a final concentration of 0.1% for better dissolution of the extractions. Oleic acid was added to the treatment medium at a final concentration of […] to increase fat (triglycerol) synthesis to better enable the visualization of intracellular lipid droplets. The treatment was given in the presence of insulin (1 μg/ml), hydrocortisone (0.5 μg/ml) and prolactin (1 μg/ml). After 24 h of incubation, medium was collected for triglyceride and phospholipid quantification, and cells were harvested for cell counting, lipid, lactose or protein extraction. Otherwise, cells were fixed for florescence staining or plates taken to seahorse for oxygen consumption rate measurement. After treatment, 0.5 ml cultured medium was collected to HPLC equipped with UV detector. Protein content was determined in 220 nm wavelength by C-18 reverse phase column. Identification and quantification were determined by constructing a calibration curve of external standard of known protein concentrations which dissolved in a 50 mM phosphate buffer (PH=6.7). Identification for α casein, β casein and α lactalbumin were qualified as caseins (α and β casein) and whey (a lactalbumin) protein. Positive values indicate increased protein content whereas negative values indicate decreased protein content.

[4] = tested on: primary culture of bovine mammary epithelial cells; test: Milk lactose secretion to the medium (HPLC, refractive index detector)
From the text: For all the experiments, primary culture of bovine mammary epithelial cells were used. The cells were isolated from 3 lactating Holstein cows according to an established protocol (Cohen et al., 2015 supra). Study protocols were in compliance with the regulations of the Israeli Ministry of Health, under the supervision of the Department for Control of Animal Products, State of Israel Ministry of Agriculture Rural Development Veterinary Services and Animal Health. Certificate Nu: #80. After isolation, 60,000 cells were plated in a 35-mm plastic dish on glass cover slips for all florescence staining experiments. For production analysis, 150,000 cells were plated in a 60-mm plastic dish for lipids, protein, and lactose extraction. […] After 24 h of incubation, medium was collected for triglyceride and phospholipid quantification, and cells were harvested for cell counting, lipid, lactose or protein extraction. […] After treatment, 0.5 ml medium was collected to be analyzed using HPLC equipped with a refractive index detector at 68° C. […] Identification and quantification were determined by establishing a calibration curve of external standard of a known lactose concentration dissolved in water. […]

[5] = tested on: primary culture of bovine mammary epithelial cells; test: Triglyceride / fat secreted to the medium by mammary epithelial cells (Nile red staining, HPLC-ELSD)
From the text: For all the experiments, primary culture of bovine mammary epithelial cells were used. The cells were isolated from 3 lactating Holstein cows according to an established protocol (Cohen et al., 2015 supra). Study protocols were in compliance with the regulations of the Israeli Ministry of Health, under the supervision of the Department for Control of Animal Products, State of Israel Ministry of Agriculture Rural Development Veterinary Services and Animal Health. Certificate Nu: #80. After isolation, 60,000 cells were plated in a 35-mm plastic dish on glass cover slips for all florescence staining experiments. For production analysis, 150,000 cells were plated in a 60-mm plastic dish for lipids, protein, and lactose extraction. […] After 24 h of incubation, medium was collected for triglyceride and phospholipid quantification, and cells were harvested for cell counting, lipid, lactose or protein extraction. […]
After treatment, total lipids were extracted from harvested cells and from collected medium. […] Quantification was performed against external standard curves and expressed as μg/per 10^6 live cells or as weight % out of the sum of phospholipids (μg) in the sample. Live cell number was determined with a hemocytometer after 5 min of trypan blue staining. […]

CC(O)CC(=O)O (stereo not drawn) [BHBA, β-hydroxybutirate]
triglyceride content in the cells ([1]; 1.2 mM BHBA added to 360 uM oleic acid, 48 hours, cell lysates): ~90 ug/10^6 cells

O=C(O)c1cc(O)c(O)c(O)c1 [gallic acid]
size of the intracellular lipid droplets ([2]; gallic acid added to MEC primary culture (FIG. 6)): increased | intracellular triglyceride content [1]: did not affect | protein secretion compared to control ([3]; 2 ppm, P=0.98): did not change | lactose secretion [4]: increases

O=c1c(O)c(-c2cc(O)c(O)c(O)c2)oc2cc(O)cc(O)c12 [myricetin, Myricetin]
triglyceride secretion [5]: can increase | intracellular triglyceride content [1]: did not affect | casein secretion, higher than control ([3]; 1 ppm, P<0.05, FIG. 7C): 126% | whey secretion, higher than control ([3]; 1 ppm, P=0.05, FIG. 7D): 124% | increase of casein and whey secretion compared with control ([3]; between about 0.5 ppm and about 2.5 ppm, for example 1 ppm): 30% | lactose secretion [4]: can increase

CCCCCCCC/C=C\CCCCCCCC(=O)O [oleic acid]
fat content (triglyceride) in medium collected from cells compared with control ([5]; 100 uM oleic acid in the presence of BSA, 24 h, Nile red): higher; also recorded: increases | oleic acid concentration at which toxic effect is evident ([2]; primary MEC, Nile red / Dapi staining (FIG. 2)): over 1 mM | increase of triglyceride content in the cells ([1]; 360 uM oleic acid, 48 hours, cell lysates): 4 fold
